According to paper PMC12040169 (PLOS Biology, 2025):

Assay: in vitro
Settings: human, hela cells, % viability

| Compound | viability at 28.5 h, 10 µM [%] | viability at 28.5 h, 10 µM (bulk resorufin, single well) [%] |
| --- | --- | --- |
| CCOc1cc(NC2CCN(C(=O)C(C)CC3CCCC3)CC2)ncn1 (stereo not shown) [CBK306176] | 85.3 |  |
| CCc1cc(-c2n[nH]c(C(=O)O)c2-c2nc(C)cs2)c(O)cc1O [CBK268247] | 99.4 |  |
| COc1ccc(CCN2C(=O)N[C@@H](CCC(=O)NC3CC3)C2=O)cc1 [CBK288001] | 109 |  |
| O=C(NCC1CCCCC1)C1(Cc2ccc(-c3cccnc3)cc2)CCOCC1 [CBK285591] | 92.6 |  |
| Cc1cccc(NC(=O)CN2C(=O)S/C(=C\c3cc(C)n(-c4cc(C)ccn4)c3C)C2=O)c1 [CBK264671] | 93.4 |  |
| O=C(NCCF)c1cn2cc(-c3cccs3)n(CC3CC3)c(=O)c2n1 [CBK307367] | 96.8 |  |
| O=C(Cc1ccc(F)cc1Cl)N1CCC(O)(c2ccccn2)CC1 [CBK283755] | 98.1 |  |
| Cc1ccc2c(CC(=O)N(C)CCN(C)C)c(C)[nH]c2c1C [CBK282157] | 102 |  |
| O=c1n(-c2ccc3c(c2)OCO3)ccn1S(=O)(=O)c1ccc2c(c1)OCCO2 [CBK106636] | 87.8 |  |
| CCOc1ccc(NC(=O)N(C)Cc2noc(CC(C)C)n2)cc1C#N [CBK307089] | 85.2 |  |
| COC(=O)c1cc(CN2CCCN(S(=O)(=O)c3ccc(C(F)(F)F)cc3Cl)CC2)cn1C [CBK063097] | 99.4 |  |
| CS(=O)(=O)c1ccc(Cn2ccnc(N3CCC(Sc4ccccc4)CC3)c2=O)cc1 [CBK144444] | 84.2 |  |
| COc1ccc(CCNC(=O)CCCc2cn(C)c3ccccc23)cc1OC [CBK061740] | 100 |  |
| CN(CCN1CCOCC1)c1nc2c(c(=O)[nH]1)Cc1ccccc1OC2 [CBK306783] | 75.4 |  |
| Cc1noc(C)c1C(=O)N1CCN(Cc2ccccc2)CC1 [CBK200173] | 90.9 |  |
| O=C(O)CCC(=O)Nc1ccc(C(=O)N2CCCc3ccccc32)cc1 [CBK269118] | 114 |  |
| O=C(Nc1ccc(F)cc1)c1c(NS(=O)(=O)c2ccc(Oc3ccccc3)cc2)sc2c1CCCC2 [CBK028653] | 96.7 |  |

| Compound | viability at 28.5 h, 10 µM [%] | viability at 28.5 h, 10 µM (bulk resorufin, single well) [%] |
| --- | --- | --- |
| C[C@@H](c1ccccc1)n1c(=O)[nH]c2ncc(-c3cccc(C(=O)NCCN(C)C)c3)nc21 [CBK064376] | 103 |  |
| CCC(C(=O)Nc1nccs1)N(C)Cc1c(C)nn(C(C)C)c1C (stereo not shown) [CBK307402] | 103 |  |
| Cc1ccccc1C(NC(=O)C1CCN(C(=O)CCC2CCCC2)CC1)c1ccccn1 (stereo not shown) [CBK059677] | 90.5 |  |
| O=C(O)[C@H]1CCCN1Cc1cc(Cl)ccc1OCCCn1ccnc1 [CBK307436] | 109 |  |
| Cc1ccnc2nc(C(=O)OC(C)C(=O)c3ccc4c(c3)CCC4)nn12 (stereo not shown) [CBK304528] | 89.5 |  |
| Cc1nnc2sc(-c3ccc(NC(=S)NC(=O)c4ccc(-c5ccccc5[N+](=O)[O-])o4)cc3)nn12 [CBK266803] | 86.4 |  |
| COc1ccc(S(=O)(=O)N(CC(=O)Nc2cccnc2)c2ccc(F)cc2)cc1 [CBK268445] | 86.5 |  |
| COC(=O)c1ccc(NC(=O)C2Cc3ccccc3CN2S(=O)(=O)c2cccs2)cc1 (stereo not shown) [CBK265693] | 92.7 |  |
| COc1ccc(Br)cc1/C=N/Nc1nc(NCc2ccccc2)nc(N2CCOCC2)n1 [CBK261232] | 92.9 |  |
| CCCCc1ccc(-c2nccn2CC2CN(C(C)=O)CCO2)s1 (stereo not shown) [CBK307600] | 110 |  |
| O=C(Oc1cccc2cnccc12)c1ccccc1 [CBK022889C] | 105 |  |
| CN(C)CCN(Cc1cccnc1)C(=O)Cc1ccc2c(c1)CCC2 [CBK282770] | 109 |  |
| S=C(Nc1ccc2nc3c4ccccc4c4ccccc4c3nc2c1)N1CCOCC1 [CBK263153] |  | 94.7 |
| Cc1ccccc1C(=O)N1C[C@H]2NC(=O)c3ccccc3C(=O)[C@@]2(C)C1 [CBK285316] | 99.7 |  |
| CC1CC(C)CN(C(=O)Cn2ncc3cccn3c2=O)C1 (stereo not shown) [CBK283805] | 81.2 |  |
| c1ccc2c(c1)CCCN2Cc1ncc[nH]1 [CBK138332] | 89.2 |  |
| Cc1occc1C(=O)Nc1nc(CC(=O)N2CC(C)SC(C)C2)cs1 (stereo not shown) [CBK306271] | 87.8 |  |
